The conditions of data set [1]: cited from earlier work; for tmax: single 37-50 mg/kg dose of an oral solution.
The conditions of data set [2]: cited from earlier work.
Another data set concerns Fmr1 KO2 mice. Kind of data set: Open field hyperactivity (locomotor activity), Fmr1 KO2 mice. Format: in vivo, mouse. The settings on record: 0.1 mg/Kg. An excerpt: (§1) Mutant fmr1 knockout (KO) mice recapitulate the Fragile X syndrome (FXS) phenotype and represent a preclinical model for assessment of putative drug treatments. In this study three different mice models of FXS were used: Fmr1 KO1 is the original Fmr1 knockout animal that carries an insertion in exon 5. See, e.g., Bakker C E, et al., The Dutch-Belgian Fragile X Consortium, Fmr1 knockout mice: A model to study fragile X mental retardation. Cell. 1994; 78:23-33 It is a protein null, although Fmr1 mRNA is still present. It is backcrossed to the C57/B16 strain. Subsequently, these mice were bred into different background strains, such as the FVB inbred mouse strain. Fmr1 KO2 is a null allele at Fmr1 generated by deletion of the promoter and first exon of Fmr1. See, Mientjes, E J et al., The generation of a conditional Fmr1 knock out mouse model to study Fmrp function in vivo. Neurobiology of Disease (2006) 21(3): 549-555. It is both protein and mRNA null. Backcrossed to the C57/B16 strain. Genotyping was accomplished using TransnetXY Automated Genotyping (http://www.transnetyx.com/). TRANSNETYX, INC., 8110 Cordova Rd. Suite 119, Cordova, TN 38016, USA.
(§2) The mice were housed in plastic cages (35×30×12 cm), 5 in each and habituated to the animal facilities for at least a week before test. The room temperature (21±2° C.), relative humidity (55±5%), a 12-h light-dark cycle (lights on 7 a.m.-7 p.m.) and air exchange (16 times per h) were automatically controlled. The animals had free access to commercial food pellets and water. Testing was conducted during the light phase. Testing was conducted on Fmr1 knockout mice and their wild-type (WT) littermates. Ten mice per treatment group, 14 weeks of age, were used for behavioral experiments. Experiments were conducted in line with the requirements of the UK Animals (Scientific Procedures) Act, 1986.
(§3) Oral dosing was performed by using 1.5-in. curved, 20-gauge, stainless steel feeding needles with a 2.25-mm ball (Braintree Scientific, Braintree, MA). Each gavage treatment was given in 0.5% methyl cellulose (Methyl Cellulose M0512, Sigma-Aldrich, St Louis, MO) used as vehicle with or without treatment compounds. The same veterinarian, blinded to the treatment groups, performed the procedure, and documented animal reactions to oral gavage. Reactions considered to indicate stress were defined as excessive struggling during gavage or abnormal behavior after gavage (labored breathing, frozen stance, exaggerated jumping, shuddering, and hunched posture).
(§4) For experiments all mice were tested once in the same apparatus. Prior to testing, mice not in the study were placed in the apparatus for some minutes before the experiment. The apparatus was then cleaned with moist and dry tissues before testing each mouse. The aim was to create a low but constant background mouse odor for all experimental subjects. All experiments were conducted with the experimenters blind to genotype and drug treatment during all testing and data analysis. Separate investigators prepared and coded dosing solutions, allocated the mice to the study treatment groups, dosed the animals, and collected the behavioral data. Data were analyzed by one-way analysis of variance (ANOVA) followed by post-hoc comparisons where appropriate using Tukey's Multiple Comparison Test. Data are represented as the mean and standard error of the mean (SEM).
1. […]

The next data set concerns Fmr1 KO1 mice. In words: Open field hyperactivity (locomotor activity), Fmr1 KO1 mice. Format: in vivo, mouse. The note with it: 0.1 mg/Kg.
Text: as §1, §2, §3, §4
1. […]

For data set [3], the system named is Fmr1 KO1 transgenic mice in an FVB background. Kind of data set: Audiogenic seizures (AGS), Fmr1 KO1 mice in FVB background. The settings on record: tested 20 minutes after injection, audio stimulus 60 seconds at 124 db. It counts as in vivo, mouse. The method, then: 4. Audiogenic Seizures (AGS) are reflex seizures generated by loud noises in genetically predisposed mice. The Fmr1 KO1 mice display audiogenic seizures depending on age and background strain, the Fmr1 KO1 mouse on the FVB background is characterized by an increased AGS susceptibility at all ages and is considered a good animal model for epilepsy. The effect of (S)-3-amino-4-(difluoromethylenyl) cyclopent-1-ene-1-carboxylic acid was tested on AGS Fmr1 KO1 transgenic mice in an FVB background. Observable criteria are: 1. normal behavior, 2. wild running, 3. seizure, and 4. respiratory arrest.
(S)-3-amino-4-(difluoromethylenyl) cyclopent-1-ene-1-carboxylic acid was administered to Fmr1 KO1 mice, males, age 2 months in the following amounts: 0.01 mg/kg, 0.05 mg/kg, and 0.1 mg/kg. Positive controls were administered 2-Methyl-6-(phenylethynyl)pyridine (MPEP), a mGluR5 antagonist, 30 mg/kg by i.p. and tested 20 minutes after injection. Audio stimulus was administered continuously for 60 seconds at 124 db.

The mark [4] stands for this setting: MPEP (positive control) 30 mg/kg i.p.

Where two headings read alike, the source gives them in different places.

For `C=CC(N)CCC(=O)O` (racemic) [vigabatrin, (RS)-4-aminohex-5-enoic acid], the “cerebrospinal concentrations as share of the plasma concentration” value in data set [1] (6 h after a single oral dose) is recorded as 10%. Besides, the values for the terminal half-life in data set [1] (adults), in data set [1] (children (10 years-16 years)) and in data set [1] (infants (5 months-2 years)) were approximately 10.5 h, approximately 9.5 h and “about 5.7 hours”, respectively. Moreover, the “area under plasma concentration-time curves versus dose” value in data set [1] (in vivo) is reported as “dose-linear pharmacokinetics”. Also, the protein binding entry in data set [1] (in vivo) was “lack of protein binding”. Further, the tmax result in data set [1] (children) is “about 1 hour”; in data set [1] (neonates and infants), “approximately 2.5 hours”.
For the compound `N[C@H]1C[C@@H](C(=O)O)CC1=C(F)F` [(1S,3S)-3-amino-4-(difluoromethylidene)cyclopentane-1-carboxylic acid], the “increase in AUCs with dose” value in data set [2] (in the dose range 5 mg-500 mg) is “greater than proportional increase”. In addition, in data set [2] (over a range of 5 mg-500 mg), the “Cmax increase with dose” value is given as “dose proportional”.
For the compound `N[C@H]1C=C(C(=O)O)CC1=C(F)F` [(S)-3-amino-4-(difluoromethylenyl)cyclopent-1-ene-1-carboxylic acid], the “Effect on open field hyperactivity (FIG. 1)” value with Fmr1 KO2 mice is “significantly reduced”. Moreover, the “Effect on open field hyperactivity (FIG. 7)” value in the data set with Fmr1 KO1 mice was “reversed hyperactivity”.
Turning to `Cc1cccc(C#Cc2ccccc2)n1` [MPEP, 2-Methyl-6-(phenylethynyl)pyridine, reference compound], in data set [3] (30 mg/kg i.p.), the Seizure is 0/10 and the Wild running was 0/10. In data set [3] (setting [4]), the Incidence was 0% and the Respiratory arrest is recorded as 0/10.

(Values after patent US12285397B2, “Use of (s)-3-amino-4-(difluoromethylenyl) cyclopent-1-ene-1-carboxylic acid and related compounds, (1S,3S)-3-amino-4-(difluoromethylidene) cyclopentane-1-carboxylic acid and vigabatrin in the treatment of developmental disorders” (Ovid Therapeutics Inc., priority 2018, dated 2025).)
